Measured values from article PMC10377586 (Biomolecules, 2023).

Legend:
human A3 (hA3) ARs = target: T1, human A3 (hA3) ARs (Homo sapiens, UniProt P0DMS8); assay: Radioligand binding [3H]PSB-11, CHO cell membranes; conditions: for Ki: CHO cell membranes, read-out: hA3 [3H]PSB-11 Ki ± SEM; for inhibition at 1 µM: read-out: hA3 [3H]PSB-11 % inhibition ± SEM at 1 µM
T1 construct: expressed in transfected cells; host or cells: CHO cells (membranes)
T1 sequence (P0DMS8 1-318): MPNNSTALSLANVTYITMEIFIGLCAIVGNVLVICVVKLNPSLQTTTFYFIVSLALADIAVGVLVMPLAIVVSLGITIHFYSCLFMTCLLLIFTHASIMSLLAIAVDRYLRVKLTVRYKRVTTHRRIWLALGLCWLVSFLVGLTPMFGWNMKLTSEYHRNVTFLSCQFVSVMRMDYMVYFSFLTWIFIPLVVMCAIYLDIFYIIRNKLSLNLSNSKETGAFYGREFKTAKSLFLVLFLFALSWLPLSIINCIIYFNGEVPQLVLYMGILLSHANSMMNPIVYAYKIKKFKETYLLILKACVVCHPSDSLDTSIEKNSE
Description: The final compounds were tested in radioligand binding assays to evaluate their affinity for all four ARs subtypes (see Table 2). Rat brain cortical membrane preparations were used as a source of rat A1 (rA1) ARs, and rat brain striatal membrane preparations served as a source of rat A2A (rA2A) ARs. For A2B- and A3AR assays, membrane preparations of Chinese hamster ovary (CHO) cells recombinantly expressing either human A2B (hA2B) or human A3 (hA3) ARs were employed.
Adenosine receptor radioligand binding assays were performed as previously described using rat brain cortical membrane preparations for A1 and rat brain striatal membrane preparations for A2A AR assays. Frozen rat brains (unstripped) were obtained from Pel Freez, Rogers, AR, USA. For assays at human AR subtypes, cell membranes of CHO cells recombinantly expressing the respective receptor were used. The following compounds were employed as radioligands: A1: [^3H]2-chloro-N^6-cyclopentyladenosine ([^3H]CCPA); A2A: [^3H]3-(3-hydroxypropyl)-7-methyl-8-(m-methoxystyryl)-1-propargylxanthine ([^3H]MSX-2); A2B: [^3H]8-(4-(4-(4-chlorophenyl)piperazine-1-sulfonyl)phenyl)-1-propylxanthine ([^3H]PSB-603); A3: [^3H]phenyl-8-ethyl-4-methyl-(8R)-4,5,7,8-tetrahydro-1H-imidazo[2,1-i]purine-5-one ([^3H]PSB-11). Initially, a single high concentration of compound was tested (1 µM). For potent compounds, full concentration–inhibition curves were determined using six to ten different concentrations of test compound spanning three orders of magnitude. At least three independent experiments were performed. Data were analyzed using GraphPad PRISM program version 4.0 or higher (Graph Pad, San Diego, CA, USA).

rat D1 receptor = target: T2, rat D1 receptor (Rattus norvegicus, UniProt P18901); assay: Radioligand binding [3H]SCH23390, rat brain tissue; conditions: for Ki: native rat D1 receptor, read-out: rD1 [3H]SCH23390 Ki ± SEM; for inhibition at 1 µM: read-out: rD1 [3H]SCH23390 % inhibition ± SEM at 1 µM
T2 construct: source of native rat D1 receptor protein; from tissue; host or cells: rat striatum (methods) / rat brain cortical membranes
T2 sequence (P18901 whole entry): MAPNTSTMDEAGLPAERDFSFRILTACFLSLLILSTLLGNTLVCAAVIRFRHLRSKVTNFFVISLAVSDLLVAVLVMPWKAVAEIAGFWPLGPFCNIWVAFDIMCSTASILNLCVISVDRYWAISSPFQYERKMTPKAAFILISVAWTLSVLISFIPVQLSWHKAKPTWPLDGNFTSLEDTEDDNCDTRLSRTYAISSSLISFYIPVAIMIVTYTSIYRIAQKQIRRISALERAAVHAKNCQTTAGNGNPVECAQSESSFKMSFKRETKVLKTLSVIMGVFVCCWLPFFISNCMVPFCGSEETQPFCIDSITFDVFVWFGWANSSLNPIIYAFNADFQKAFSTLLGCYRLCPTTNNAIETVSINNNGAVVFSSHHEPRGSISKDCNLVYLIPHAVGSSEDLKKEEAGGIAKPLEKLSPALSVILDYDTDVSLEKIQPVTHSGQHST
Description: Rat brain cortical membranes were used as source of native rat D1 receptor protein, and human D2 receptor was recombinantly expressed in HEK293 cells.
Rat striatum tissue was thawed in 50 volumes of ice-cold 50 mM potassium phosphate buffer, pH 7.4, homogenized and centrifuged at 20,000× g for 20 min. The resulting pellet was resuspended in the same quantity of the buffer and centrifuged again for 20 min. Binding experiments were conducted in 96-well microplates in a total volume of 250 μL of appropriate buffers. Reaction mix included 50 μL solution of test compound, 50 μL of radioligand, and 150 μL of tissue suspension (3 mg/mL). [^3H]SCH23390 (spec. act. 81.9 Ci/mmol, PerkinElmer, NET 930) was used for labeling the D1-receptor. For measuring unspecific binding, cis(Z)flupentixol—5 μM was applied. Samples were incubated at 30 °C for 60 min. The incubation was terminated by rapid filtration over glass fiber filters GF/B using a Harvester (PerkinElmer, USA). The radioactivity was measured in MicroBeta TriLux 1450—liquid scintillation counter (PerkinElmer). Each compound was tested in a screening assay in duplicate at final concentrations of 1 µM. Results were expressed as a percent of inhibition of specific binding.

SH-SY5Y cells = assay: Neuroprotection against H2O2-induced toxicity, LDH assay; type: cell-based; conditions: 300 µM hydrogen peroxide, compounds at 10 or 50 µM
Description: For neuroprotection studies, a cellular model of neuroblastoma SH-SY5Y cells exposed to hydrogen peroxide was applied. Lactate dehydrogenase (LDH) release was used as a measure of cell death. First, the compounds (11a, 11c, 12, 13, 20a, 21, and 22) were tested for their possible intrinsic neurotoxicity to the SH-SY5Y cell line (see Supplementary Figure S1). […] All other compounds were tested for cytoprotective effects against H2O2-induced toxicity in SH-SY5Y cells.
Neuroblastoma SH-SY5Y cells were seeded at the density of 20,000 cells per well to 96-well plates one day before the experiment. Twelve hours prior to start of the assay, cell culture medium was replaced with the fresh portion of reduced serum (1%) medium. Tested compounds were added to the cells at the final concentration of 10 or 50 µM in 1% DMSO. In the neuroprotection studies, hydrogen peroxide, at a final concertation of 300 µM, was pipetted to the assay plate 1 h after tested compounds addition. Cell death, represented by the release of LDH through the perforated cell membrane, was measured following 14 h incubation of cells with the compounds and hydrogen peroxide. LDH levels in cell culture medium were determined using fluorometric CytoTox-ONE Homogeneous Membrane Integrity Assay (Promega Corporation, Madison, WI, USA), according to manufacturer’s instructions.
Figure 3 The ability of tested compounds to reduce the cytotoxicity of 300 μM hydrogen peroxide (HP) on dopaminergic neuronal cells (SH-SY5Y) as judged by LDH assay. Data represent the mean of two experiments performed in triplicate. Results are presented as percent of cytotoxicity induced by 300 µM hydrogen peroxide (HP) ± SEM. NT–vehicle control (1% DMSO).

Ki (human A3 (hA3) ARs) | inhibition at 1 µM (human A3 (hA3) ARs) | Ki (rat D1 receptor) | inhibition at 1 µM (rat D1 receptor) | melting point | SMILES | cytoprotective effect against H2O2-induced toxicity (LDH release) (SH-SY5Y cells) | dose dependence of cytoprotective effect (SH-SY5Y cells)
> 1 µM | -6% | > 1 µM | 15% |  | CC(C)Cn1c(NCCc2ccc(O)c(O)c2)nc2c1c(=O)n(C)c(=O)n2C [Compound 11f, 8-((3,4-Dihydroxyphenethyl)amino)-7-isobutyl-1,3-dimethyl-3,7-dihydro-1H-purine-2,6-dione] |  | 
> 1 µM | 12% | > 1 µM | 15% | 180 to 182 °C | CC(C)n1c(NCCc2ccc(O)c(O)c2)nc2c1c(=O)n(C)c(=O)n2C [Compound 11d, 8-((3,4-Dihydroxyphenethyl)amino)-7-isopropyl-1,3-dimethyl-3,7-dihydro-1H-purine-2,6-dione] |  | 
0.676 ± 0.143 µM |  | > 1 µM | 11% |  | CCCCn1c(=O)c2c(nc3n2CCCN3CCc2ccc(O)c(O)c2)n(CCCC)c1=O [Compound 22, 1,3-Dibutyl-9-(3,4-dihydroxyphenethyl)-6,7,8,9-tetrahydropyrimido[2,1-f]purine-2,4(1H,3H)-dione] | most potent | 
> 1 µM | -4% | > 1 µM | 11% |  | CCC(C)n1c(NCCc2ccc(O)c(O)c2)nc2c1c(=O)n(C)c(=O)n2C (stereo not shown) [Compound 11g, 7-(Sec-butyl)-8-((3,4-dihydroxyphenethyl)amino)-1,3-dimethyl-3,7-dihydro-1H-purine-2,6-dione] |  | 
> 1 µM | -2% | > 1 µM | 3% | 218 to 220 °C | Cn1c(=O)c2c(nc(NCCc3ccc(O)c(O)c3)n2CCOc2ccccc2)n(C)c1=O [Compound 11l, 8-((3,4-Dihydroxyphenethyl)amino)-1,3-dimethyl-7-(2-phenoxyethyl)-3,7-dihydro-1H-purine-2,6-dione] |  | 
> 1 µM | 26% | > 1 µM | 12% |  | CCCn1c(=O)c2c(nc3n2CCCN3CCc2ccc(O)c(O)c2)n(CCC)c1=O [Compound 21, 9-(3,4-Dihydroxyphenethyl)-1,3-dipropyl-6,7,8,9-tetrahydropyrimido[2,1-f]purine-2,4(1H,3H)-dione] | most potent | Dose-dependent responses
> 1 µM | 0% | > 1 µM | 13% |  | CCCCn1c(NCCc2ccc(O)c(O)c2)nc2c1c(=O)n(C)c(=O)n2C [Compound 11e, 7-Butyl-8-((3,4-dihydroxyphenethyl)amino)-1,3-dimethyl-3,7-dihydro-1H-purine-2,6-dione] |  | 
> 1 µM | 7% | > 1 µM | 3% |  | Cn1c(=O)c2c(nc(NCCc3ccc(O)c(O)c3)n2Cc2ccccc2)n(C)c1=O [Compound 11j, 7-Benzyl-8-((3,4-dihydroxyphenethyl)amino)-1,3-dimethyl-3,7-dihydro-1H-purine-2,6-dione] |  | 
> 1 µM | 0% | > 1 µM | 12% |  | CCCCCn1c(NCCc2ccc(O)c(O)c2)nc2c1c(=O)n(C)c(=O)n2C [Compound 11h, 8-((3,4-Dihydroxyphenethyl)amino)-1,3-dimethyl-7-pentyl-3,7-dihydro-1H-purine-2,6-dione] |  | 
> 1 µM | -2% | > 1 µM | 15% | 232 to 235 °C | Cn1c(=O)c2c(nc3n2CCCCN3CCc2ccc(O)c(O)c2)n(C)c1=O [Compound 20b, 10-(3,4-Dihydroxyphenethyl)-1,3-dimethyl-7,8,9,10-tetrahydro-1H-[1, 3]diazepino[2,1-f]purine-2,4(3H,6H)-dione] |  | 
> 1 µM | 5% | > 1 µM | 9% |  | CCCn1c(NCCc2ccc(O)c(O)c2)nc2c1c(=O)n(C)c(=O)n2C [Compound 11c, 8-((3,4-Dihydroxyphenethyl)amino)-1,3-dimethyl-7-propyl-3,7-dihydro-1H-purine-2,6-dione] |  | Dose-dependent responses
> 1 µM | -5% | > 1 µM | 15% | 225 to 226 °C | CCn1c(NCCc2ccc(O)c(O)c2)nc2c1c(=O)n(C)c(=O)n2C [Compound 11b, 8-((3,4-Dihydroxyphenethyl)amino)-7-ethyl-1,3-dimethyl-3,7-dihydro-1H-purine-2,6-dione] |  | 
> 1 µM | -1% | > 1 µM | 13% | 204 to 206 °C | Cn1c(=O)c2c(nc(NCCc3ccc(O)c(O)c3)n2C)n(C)c1=O [Compound 11a, 8-((3,4-Dihydroxyphenethyl)amino)-1,3,7-trimethyl-3,7-dihydro-1H-purine-2,6-dione] |  | 
> 1 µM | 25% | > 1 µM | 9% |  | CCCn1c(=O)c2c(nc(NCCc3ccc(O)c(O)c3)n2CCC)n(CCC)c1=O [Compound 12, 8-((3,4-Dihydroxyphenethyl)amino)-1,3,7-tripropyl-3,7-dihydro-1H-purine-2,6-dione] | most potent | Dose-dependent responses

SMILES | Ki (human A3 (hA3) ARs) | inhibition at 1 µM (human A3 (hA3) ARs) | Ki (rat D1 receptor) | inhibition at 1 µM (rat D1 receptor) | melting point | cytoprotective effect against H2O2-induced toxicity (LDH release) (SH-SY5Y cells) | dose dependence of cytoprotective effect (SH-SY5Y cells)
CCCCn1c(=O)c2c(nc(NCCc3ccc(O)c(O)c3)n2CCC)n(CCCC)c1=O [Compound 13, 1,3-Dibutyl-8-((3,4-dihydroxyphenethyl)amino)-7-propyl-3,7-dihydro-1H-purine-2,6-dione] | > 1 µM | 17% | > 1 µM | 2% |  |  | 
